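Test compounds were applied to cells in 96-well plates for 48 hours at 5 doses. TGI marks complete inhibition of growth.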
Assays:
Assay in all cases: growth of human tumour cells (NCI), 48 h
UACC-62 melanoma = test system: UACC-62 melanoma
HT29 colon = test system: HT29 colon
OVCAR-4 ovarian = test system: OVCAR-4 ovarian
OVCAR-3 ovarian = test system: OVCAR-3 ovarian
UACC-257 melanoma = test system: UACC-257 melanoma
NCI/ADR-RES ovarian = test system: NCI/ADR-RES ovarian
HOP-62 NSCLC = test system: HOP-62 NSCLC
TK-10 renal = test system: TK-10 renal
SK-OV-3 ovarian = test system: SK-OV-3 ovarian
IGROV1 ovarian = test system: IGROV1 ovarian
HCT-15 colon = test system: HCT-15 colon
SF-295 CNS = test system: SF-295 CNS
SK-MEL-2 melanoma = test system: SK-MEL-2 melanoma
786-0 renal = test system: 786-0 renal
OVCAR-5 ovarian = test system: OVCAR-5 ovarian
HOP-92 NSCLC = test system: HOP-92 NSCLC
MCF7 breast = test system: MCF7 breast
OVCAR-8 ovarian = test system: OVCAR-8 ovarian
DU-145 prostate = test system: DU-145 prostate
MALME-3M melanoma = test system: MALME-3M melanoma
SF-539 CNS = test system: SF-539 CNS
CAKI-1 renal = test system: CAKI-1 renal
SNB-75 CNS = test system: SNB-75 CNS
HCC-2998 colon = test system: HCC-2998 colon
ACHN renal = test system: ACHN renal
SNB-19 CNS = test system: SNB-19 CNS
UO-31 renal = test system: UO-31 renal
NCI-H23 lung = test system: NCI-H23 lung
NCI-H522 lung = test system: NCI-H522 lung
KM12 colon = test system: KM12 colon
RXF 393 renal = test system: RXF 393 renal
LOX IMVI melanoma = test system: LOX IMVI melanoma
T-47D breast = test system: T-47D breast
A498 renal = test system: A498 renal
BT-549 breast = test system: BT-549 breast
MDA-N = test system: MDA-N
SK-MEL-5 melanoma = test system: SK-MEL-5 melanoma
COLO 205 colon = test system: COLO 205 colon
HCT-116 colon = test system: HCT-116 colon
SF-268 CNS = test system: SF-268 CNS
NCI-H460 lung = test system: NCI-H460 lung
CCRF-CEM leukemia = test system: CCRF-CEM leukemia
MDA-MB-435 = test system: MDA-MB-435
MDA-MB-231 breast = test system: MDA-MB-231 breast
A549 NSCLC = test system: A549 NSCLC
SW-620 colon = test system: SW-620 colon
SN12C renal = test system: SN12C renal
PC-3 prostate = test system: PC-3 prostate
EKVX NSCLC = test system: EKVX NSCLC
U251 CNS = test system: U251 CNS
HL-60(TB) leukemia = test system: HL-60(TB) leukemia
M14 melanoma = test system: M14 melanoma
SK-MEL-28 melanoma = test system: SK-MEL-28 melanoma
K-562 leukemia = test system: K-562 leukemia
SR leukemia = test system: SR leukemia
HS 578T breast = test system: HS 578T breast
MOLT-4 leukemia = test system: MOLT-4 leukemia
NCI-H226 lung = test system: NCI-H226 lung
RPMI-8226 leukemia = test system: RPMI-8226 leukemia

With COc1ccc(-c2nc(SCC(=O)N/N=C/c3ccc(N(C)C)cc3)[nH]c2-c2ccc(OC)cc2)cc1 the TGI (UACC-62 melanoma) was > 100 µM, the TGI (HT29 colon) was > 100 µM and the TGI (OVCAR-4 ovarian) was > 100 µM. For the same compound, the TGI (OVCAR-3 ovarian) was > 100 µM, the TGI (UACC-257 melanoma) was > 100 µM and the TGI (NCI/ADR-RES ovarian) was > 100 µM. For the same compound, the TGI (HOP-62 NSCLC) was > 100 µM, the TGI (TK-10 renal) was > 100 µM and the TGI (SK-OV-3 ovarian) was > 100 µM. For the same compound, the TGI (IGROV1 ovarian) was > 100 µM, the TGI (HCT-15 colon) was > 100 µM and the TGI (SF-295 CNS) was > 100 µM. The TGI (SK-MEL-2 melanoma) was > 100 µM, the TGI (786-0 renal) was > 100 µM and the TGI (OVCAR-5 ovarian) was > 100 µM. For the same compound, the TGI (HOP-92 NSCLC) was > 100 µM, the TGI (MCF7 breast) was > 100 µM and the TGI (OVCAR-8 ovarian) was > 100 µM. The TGI (DU-145 prostate) was > 100 µM, the TGI (MALME-3M melanoma) was > 100 µM and the TGI (SF-539 CNS) was > 100 µM. The TGI (CAKI-1 renal) was > 100 µM, the TGI (SNB-75 CNS) was > 100 µM and the TGI (HCC-2998 colon) was > 100 µM. The TGI (ACHN renal) was > 100 µM, the TGI (SNB-19 CNS) was > 100 µM and the TGI (UO-31 renal) was > 100 µM. For the same compound, the TGI (NCI-H23 lung) was > 100 µM, the TGI (NCI-H522 lung) was > 100 µM and the TGI (KM12 colon) was > 100 µM. For the same compound, the TGI (RXF 393 renal) was > 100 µM, the TGI (LOX IMVI melanoma) was > 100 µM and the TGI (T-47D breast) was > 100 µM. The TGI (A498 renal) was > 100 µM, the TGI (BT-549 breast) was > 100 µM and the TGI (MDA-N) was > 100 µM. For the same compound, the TGI (SK-MEL-5 melanoma) was > 100 µM, the TGI (COLO 205 colon) was 24.5 µM and the TGI (HCT-116 colon) was > 100 µM. The TGI (SF-268 CNS) was > 100 µM, the TGI (NCI-H460 lung) was > 100 µM and the TGI (CCRF-CEM leukemia) was > 100 µM. For the same compound, the TGI (MDA-MB-435) was > 100 µM, the TGI (MDA-MB-231 breast) was > 100 µM and the TGI (A549 NSCLC) was > 100 µM. For the same compound, the TGI (SW-620 colon) was > 100 µM, the TGI (SN12C renal) was > 100 µM and the TGI (PC-3 prostate) was > 100 µM. For the same compound, the TGI (EKVX NSCLC) was > 100 µM, the TGI (U251 CNS) was > 100 µM and the TGI (HL-60(TB) leukemia) was > 100 µM. The TGI (M14 melanoma) was > 100 µM, the TGI (SK-MEL-28 melanoma) was > 100 µM and the TGI (K-562 leukemia) was > 100 µM.
For O=C(CC(C(=O)c1ccsc1)c1ccc2c(c1)OCO2)c1ccccc1 (stereo not drawn), the TGI (UACC-62 melanoma) was > 100 µM, the TGI (HT29 colon) was > 100 µM and the TGI (OVCAR-4 ovarian) was > 100 µM. For the same compound, the TGI (OVCAR-3 ovarian) was > 100 µM, the TGI (UACC-257 melanoma) was > 100 µM and the TGI (NCI/ADR-RES ovarian) was > 100 µM. For the same compound, the TGI (SR leukemia) was > 100 µM, the TGI (HS 578T breast) was > 100 µM and the TGI (HOP-62 NSCLC) was > 100 µM. The TGI (TK-10 renal) was > 100 µM, the TGI (SK-OV-3 ovarian) was > 100 µM and the TGI (IGROV1 ovarian) was > 100 µM. For the same compound, the TGI (HCT-15 colon) was > 100 µM, the TGI (SF-295 CNS) was > 100 µM and the TGI (786-0 renal) was > 100 µM. For the same compound, the TGI (OVCAR-5 ovarian) was > 100 µM, the TGI (HOP-92 NSCLC) was > 100 µM and the TGI (MOLT-4 leukemia) was > 100 µM. The TGI (MCF7 breast) was > 100 µM, the TGI (OVCAR-8 ovarian) was > 100 µM and the TGI (DU-145 prostate) was > 100 µM. For the same compound, the TGI (NCI-H226 lung) was > 100 µM, the TGI (SF-539 CNS) was > 100 µM and the TGI (CAKI-1 renal) was > 100 µM. For the same compound, the TGI (SNB-75 CNS) was > 100 µM, the TGI (HCC-2998 colon) was > 100 µM and the TGI (ACHN renal) was > 100 µM. For the same compound, the TGI (UO-31 renal) was > 100 µM, the TGI (NCI-H23 lung) was 63.1 µM and the TGI (NCI-H522 lung) was > 100 µM. For the same compound, the TGI (KM12 colon) was > 100 µM, the TGI (RXF 393 renal) was > 100 µM and the TGI (LOX IMVI melanoma) was > 100 µM. The TGI (T-47D breast) was > 100 µM, the TGI (A498 renal) was > 100 µM and the TGI (MDA-N) was > 100 µM. For the same compound, the TGI (SK-MEL-5 melanoma) was > 100 µM, the TGI (COLO 205 colon) was > 100 µM and the TGI (HCT-116 colon) was > 100 µM. The TGI (SF-268 CNS) was > 100 µM, the TGI (NCI-H460 lung) was > 100 µM and the TGI (CCRF-CEM leukemia) was > 100 µM. For the same compound, the TGI (RPMI-8226 leukemia) was > 100 µM, the TGI (MDA-MB-435) was > 100 µM and the TGI (A549 NSCLC) was 50.7 µM. For the same compound, the TGI (SW-620 colon) was > 100 µM, the TGI (SN12C renal) was > 100 µM and the TGI (EKVX NSCLC) was > 100 µM. The TGI (U251 CNS) was > 100 µM, the TGI (HL-60(TB) leukemia) was > 100 µM and the TGI (M14 melanoma) was > 100 µM. For the same compound, the TGI (SK-MEL-28 melanoma) was > 100 µM and the TGI (K-562 leukemia) was > 100 µM.
For c1c[nH]c(-c2ccc(-c3ccc[nH]3)c3nsnc23)c1, the TGI (UACC-62 melanoma) was > 100 µM, the TGI (HT29 colon) was > 37.8 µM and the TGI (OVCAR-4 ovarian) was > 16.5 µM. The TGI (OVCAR-3 ovarian) was 95.4 µM, the TGI (UACC-257 melanoma) was > 100 µM and the TGI (NCI/ADR-RES ovarian) was > 93.2 µM. For the same compound, the TGI (HS 578T breast) was > 100 µM, the TGI (HOP-62 NSCLC) was > 80.1 µM and the TGI (TK-10 renal) was > 100 µM. For the same compound, the TGI (SK-OV-3 ovarian) was > 100 µM, the TGI (IGROV1 ovarian) was > 100 µM and the TGI (HCT-15 colon) was > 76.8 µM. The TGI (SF-295 CNS) was > 100 µM, the TGI (SK-MEL-2 melanoma) was > 100 µM and the TGI (786-0 renal) was > 67.6 µM. For the same compound, the TGI (OVCAR-5 ovarian) was > 96.1 µM, the TGI (HOP-92 NSCLC) was > 100 µM and the TGI (MOLT-4 leukemia) was > 45.8 µM. For the same compound, the TGI (MCF7 breast) was > 100 µM, the TGI (OVCAR-8 ovarian) was > 60.4 µM and the TGI (DU-145 prostate) was 98.3 µM. The TGI (NCI-H226 lung) was > 100 µM, the TGI (SF-539 CNS) was > 76.8 µM and the TGI (CAKI-1 renal) was > 100 µM. The TGI (SNB-75 CNS) was > 85.8 µM, the TGI (HCC-2998 colon) was > 100 µM and the TGI (ACHN renal) was > 86.8 µM. For the same compound, the TGI (SNB-19 CNS) was > 100 µM, the TGI (UO-31 renal) was > 74.7 µM and the TGI (NCI-H23 lung) was 79.6 µM. For the same compound, the TGI (NCI-H522 lung) was > 100 µM, the TGI (KM12 colon) was > 100 µM and the TGI (RXF 393 renal) was > 66.8 µM. The TGI (LOX IMVI melanoma) was > 100 µM, the TGI (A498 renal) was > 100 µM and the TGI (BT-549 breast) was > 100 µM. For the same compound, the TGI (MDA-N) was > 100 µM, the TGI (SK-MEL-5 melanoma) was > 100 µM and the TGI (COLO 205 colon) was > 65.9 µM. For the same compound, the TGI (HCT-116 colon) was > 59.8 µM, the TGI (SF-268 CNS) was > 100 µM and the TGI (NCI-H460 lung) was > 100 µM. For the same compound, the TGI (CCRF-CEM leukemia) was > 35.3 µM, the TGI (RPMI-8226 leukemia) was > 52.6 µM and the TGI (MDA-MB-435) was > 70.9 µM. The TGI (MDA-MB-231 breast) was > 84.8 µM, the TGI (A549 NSCLC) was > 70 µM and the TGI (SW-620 colon) was > 100 µM. For the same compound, the TGI (SN12C renal) was > 100 µM, the TGI (PC-3 prostate) was > 100 µM and the TGI (EKVX NSCLC) was > 58.4 µM. For the same compound, the TGI (U251 CNS) was > 66.5 µM, the TGI (HL-60(TB) leukemia) was > 100 µM and the TGI (M14 melanoma) was > 63 µM. For the same compound, the TGI (SK-MEL-28 melanoma) was > 100 µM and the TGI (K-562 leukemia) was > 49.1 µM.

Source: PubChem BioAssay (NCI)
